This note sets out measurements from patent publication US20250136568A1, “FUSED HETEROCYCLIC COMPOUNDS AS PI3KALPHA INHIBITORS” (Nanjing Zenshine Pharmaceuticals Co., Ltd., priority 2021, published 2025).

The structures appear in SMILES notation. Read-outs that look alike come from different tables or passages of the source.

Holding throughout (format): cell-based
The subject of assay [1] is PI3Kα H1047R mutation cell line MDA-MB-453. Nature of the assay: Cell Proliferation IC50 Assay (CellTiter-Glo), MDA-MB-453. The following applies: MDA-MB-453 (H1047R), 72 hours, CellTiter-Glo, read-out: IC50 (μM) MDA-MB-453. From the text: PI3Kα H1047R mutation cell line T-47D and MDA-MB-453, E545K mutation cell line MDA-MB-361 and PI3Kα wide type cell line SK-BR-3 were purchased from Cobioer Biotech (cat. no CBP60397, CBP60386, CBP60383 and CBP60413 respectively). The CellTiter-Glo Direct Cell Proliferation Assay Kit was purchased from Prornega (cat. No. G7573)
For cell proliferation assay in each cell line: • a. Prepare complete medium (R PMI 1640, DMEM or McCoys): Add FBS and appropriate additives according to the information sheet provided by the vendor. Mix gently. • b. Prepare single cell suspension and count the cell numbers and adjust cells to appropriate density. • c. Add 80 μL of cell suspension to 96-well opaque-walled clear bottom plates according to the planned plate layout and place the plates in the CO2 incubator overnight. • d. Prepare intermediate plate: 10 μl of diluted test compounds or staurosporine solution (200×) is added to a 96 deep well plate. Then 390 μl of culture medium without FBS is added to the respective wells. • e. Transfer 20 μL of the solutions from the above intermediate plate to the wells of the plate prepared containing 80 μL of the culture medium and cells. The total dilution is 200 folds. • f. The cells were then incubated at 5% CO2, 37° C. for 72 hours. • g. Equilibrate the plate and its contents to room temperature for approximately 30 minutes. • h. Add 100 μL of CellTiter-Glo reagent to the assay plate • i. Mix contents for 10 minutes on an orbital shaker to induce cell lysis. • j. Allow the plate to incubate at room temperature for 10 minutes to stabilize luminescent signal, • k. Paste the clear bottom with white back seal and record luminescence with Varioskan LUX plate reader.
Inhibition % and IC50 value were calculated by the formula described below: […]
(In ATP-based viability assays light output follows the ATP content of the culture.)

Assay [2] has as its system PI3Kα H1047R mutation cell line T-47D. Nature of the assay: Cell Proliferation IC50 Assay (CellTiter-Glo), T-47D. The following applies: T47D (H1047R), 72 hours, CellTiter-Glo, read-out: IC50 (μM) T47D. The method, boiled down: (§1)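 Cells were seeded and left overnight, then exposed to serially diluted compound (200-fold final dilution) for 72 h at 37 °C, 5% CO2. Viability was read by CellTiter-Glo luminescence. Percent inhibition and IC50 were calculated from the signal.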

Assay [3] relates to PI3Kα wide type cell line SK-BR-3. Nature of the assay: Cell Proliferation IC50 Assay (CellTiter-Glo), SK-BR-3. The conditions noted are these: SK-BR-3 (PI3Kα wild type), 72 hours, CellTiter-Glo, read-out: IC50 (μM) SK-BR-3. Put shortly:
as §1

`Cc1cc(C(C)Nc2ccccc2C(=O)O)c2oc(-c3ccc4c(c3)C(=O)N(C)C4)cc(=O)c2c1` (stereo not shown) [Example 23, 2-((1-(6-methyl-2-(2-methyl-3-oxoisoindolin-5-yl)-4-oxo-4H-chromen-8-yl)ethyl)amino)benzoic acid]: the IC50 is 6.3 µM in assay [1] (Homo sapiens); 3.2 µM in assay [2] (Homo sapiens, T47D, 72 h); > 10 µM in assay [3] (Homo sapiens).

Turning to `Cc1cc(C(C)Nc2ccccc2C(=O)O)c2oc(C3CCN(C(=O)OC(C)(C)C)CC3)cc(=O)c2c1` (stereo not shown) [Example 13, 2-((1-(2-(1-(tert-butoxycarbonyl)piperidin-4-yl)-6-methyl-4-oxo-4H-chromen-8-yl)ethyl)amino)benzoic acid], the IC50 in assay [1] (Homo sapiens) was 2.29 µM; in assay [2] (Homo sapiens, T47D, 72 h) it was 1.33 µM; in assay [3] (Homo sapiens), > 10 µM.

As to `Cc1cc(C(C)Nc2ccccc2C(=O)O)c2oc(C3=CCN(c4ccccc4)CC3)cc(=O)c2c1` (stereo not shown) [Example 19, 2-((1-(6-methyl-4-oxo-2-(1-phenyl-1,2,3,6-tetrahydropyridin-4-yl)-4H-chromen-8-yl)ethyl)amino)benzoic acid], the IC50 in assay [1] (Homo sapiens) is 1.39 µM; in assay [2] (Homo sapiens, T47D, 72 h) it was 0.35 µM; in assay [3] (Homo sapiens), > 10 µM.

Consider `Cc1cc(C(C)Nc2ccccc2C(=O)O)c2oc(-c3ccccc3)cc(=O)c2c1` (stereo not shown) [Example 1, 2-((1-(6-methyl-4-oxo-2-phenyl-4H-chromen-8-yl)ethyl)amino)benzoic acid], for which the IC50 is 0.7 µM in assay [1] (Homo sapiens); 0.33 µM in assay [2] (Homo sapiens, T47D, 72 h); > 10 µM in assay [3] (Homo sapiens).

Take `Cc1cc(C(C)Nc2ccccc2C(=O)O)c2oc(-c3ccc4ncccc4c3)cc(=O)c2c1` (stereo not shown) [Example 35, 2-((1-(6-methyl-4-oxo-2-(quinolin-6-yl)-4H-chromen-8-yl)ethyl)amino)benzoic acid]: the IC50 in assay [1] (Homo sapiens) is 0.57 µM; in assay [2] (Homo sapiens, T47D, 72 h), 0.5 µM; in assay [3] (Homo sapiens), > 10 µM.

For the compound `Cc1cc(C(C)Nc2ccccc2C(=O)O)c2oc(-c3cccnc3)cc(=O)c2c1` (stereo not shown) [Example 32, 2-((1-(6-methyl-4-oxo-2-(pyridin-3-yl)-4H-chromen-8-yl)ethyl)amino)benzoic acid], the IC50 in assay [1] (Homo sapiens) is 1.38 µM; in assay [2] (Homo sapiens, T47D, 72 h), 0.75 µM; in assay [3] (Homo sapiens) it was > 10 µM.

With `Cc1cc(C(C)Nc2ccccc2C(=O)O)c2oc(-c3ccc4c(c3)CN(C)C4=O)c(C)c(=O)c2c1` (stereo not shown) [Example 20, 2-((1-(3,6-dimethyl-2-(2-methyl-1-oxoisoindolin-5-yl)-4-oxo-4H-chromen-8-yl)ethyl)amino)benzoic acid], the IC50 in assay [1] (Homo sapiens) is 0.18 µM; in assay [2] (Homo sapiens, T47D, 72 h), 0.12 µM; in assay [3] (Homo sapiens), > 10 µM.

As to `Cc1cc(C(C)Nc2ccccc2C(=O)O)c2oc(C3CCNCC3)cc(=O)c2c1` (stereo not shown) [Example 15, 2-((1-(6-methyl-4-oxo-2-(piperidin-4-yl)-4H-chromen-8-yl)ethyl)amino)benzoic acid], the IC50 in assay [1] (Homo sapiens) was > 10 µM; in assay [2] (Homo sapiens, T47D, 72 h) it was > 10 µM; in assay [3] (Homo sapiens), > 10 µM.

On to `C[C@H](Nc1ccccc1C(=O)O)c1cc(Cl)cc2c(=O)cc(-c3ccc4nn(C)cc4c3)oc12` (single isomer, unassigned) [Example 98A], for which the concentration for half-maximal inhibition (IC50) in assay [1] was 0.09 µM; in assay [2], 0.038 µM; in assay [3], > 10 µM.

Consider `Cc1cc(C(C)Nc2ccccc2C(=O)O)c2oc(-c3ccc(Cl)cc3)cc(=O)c2c1` (stereo not shown) [Example 3, 2-((1-(2-(4-chlorophenyl)-6-methyl-4-oxo-4H-chromen-8-yl)ethyl)amino)benzoic acid], for which the IC50 in assay [1] (Homo sapiens) was 0.56 µM; in assay [2] (Homo sapiens, T47D, 72 h), 0.75 µM; in assay [3] (Homo sapiens), > 10 µM.

As to `Cc1cc(C(C)Nc2ccccc2C(=O)O)c2oc(-c3ccc4c(c3)CN(C)C4=O)cc(=O)c2c1` (stereo not shown) [Example 6, 2-((1-(6-methyl-2-(2-methyl-1-oxoisoindolin-5-yl)-4-oxo-4H-chromen-8-yl)ethyl)amino)benzoic acid], the IC50 in assay [1] (Homo sapiens) was 0.29 µM; in assay [2] (Homo sapiens, T47D, 72 h), 0.23 µM; in assay [3] (Homo sapiens), > 10 µM.

Regarding `Cc1cc(C(C)Nc2ccccc2C(=O)O)c2oc(-c3ccncc3)cc(=O)c2c1` (stereo not shown) [Example 33, 2-((1-(6-methyl-4-oxo-2-(pyridin-4-yl)-4H-chromen-8-yl)ethyl)amino)benzoic acid], the IC50 in assay [1] (Homo sapiens) was 0.42 µM; in assay [2] (Homo sapiens, T47D, 72 h) it was 0.32 µM; in assay [3] (Homo sapiens) it was > 10 µM.

As to `Cc1cc(C(C)Nc2ccccc2C(=O)O)c2oc(-c3ccc(N4CCOC(C)C4)cc3)cc(=O)c2c1` (stereo not shown) [Example 67, 2-((1-(6-methyl-2-(4-(2-methylmorpholino)phenyl)-4-oxo-4H-chromen-8-yl)ethyl)amino)benzoic acid], the IC50 in assay [1] (Homo sapiens) is 0.2 µM; in assay [3] (Homo sapiens), > 10 µM.

Take `Cc1cc(C(C)Nc2ccccc2C(=O)O)c2oc(-c3ccc4cnn(C)c4c3)cc(=O)c2c1` (stereo not shown) [Example 52, 2-((1-(6-methyl-2-(1-methyl-1H-indazol-6-yl)-4-oxo-4H-chromen-8-yl)ethyl)amino)benzoic acid]: the figures for the IC50 in assay [1] (Homo sapiens) and in assay [3] (Homo sapiens) were 0.78 µM and > 10 µM, respectively.

Take `COCCn1cc2cc(-c3cc(=O)c4cc(C)cc(C(C)Nc5ccccc5C(=O)O)c4o3)ccc2n1` (stereo not shown) [Example 58, 2-((1-(2-(2-(2-methoxyethyl)-211-indazol-5-yl)-6-methyl-4-oxo-4H-chromen-8-yl)ethyl)amino)benzoic acid]: the IC50 in assay [1] (Homo sapiens) is 0.27 µM; in assay [3] (Homo sapiens), > 10 µM.

As to `Cc1cc(C(C)Nc2ccccc2C(=O)O)c2oc(-c3ccc(=O)n(C)c3)cc(=O)c2c1` (stereo not shown) [Example 50, 2-((1-(6-methyl-2-(1-methyl-6-oxo-1,6-dihydropyridin-3-yl)-4-oxo-4H-chromen-8-yl)ethyl)amino)benzoic acid], the IC50 is 6.39 µM in assay [1] (Homo sapiens) and > 10 µM in assay [3] (Homo sapiens).

For `Cc1cc(C(C)Nc2ccccc2C(=O)O)c2oc(-c3ccc(N4CCOCC4C)cc3)cc(=O)c2c1` (stereo not shown) [Example 66, 2-((1-(6-methyl-2-(4-(3-methylmorpholino)phenyl)-4-oxo-4H-chromen-8-yl)ethyl)amino)benzoic acid], the IC50 in assay [1] (Homo sapiens) is 0.2 µM; in assay [3] (Homo sapiens), > 10 µM.

As for `Cc1cc(C(C)Nc2ccccc2C(=O)O)c2oc(-c3ccc4c(c3)CCN(C)C4=O)cc(=O)c2c1` (stereo not shown) [Example 47, 2-((1-(6-methyl-2-(2-methyl-1-oxo-1,2,3,4-tetrahydroisoquinolin-6-yl)-4-oxo-4H-chromen-8-yl)ethyl)amino)benzoic acid], the IC50 was 0.24 µM in assay [1] (Homo sapiens) and > 10 µM in assay [3] (Homo sapiens).

Regarding `Cc1cc(C(C)Nc2ccccc2C(=O)O)c2oc(C3CCN(c4ccncc4)CC3)c(C)c(=O)c2c1` (stereo not shown) [Example 126, 2-((1-(3,6-dimethyl-4-oxo-2-(1-(pyridin-4-yl)piperidin-4-yl)-4H-chromen-8-yl)ethyl)amino)benzoic acid], the values for the IC50 in assay [1] (Homo sapiens) and in assay [3] (Homo sapiens) were 2.46 µM and > 10 µM, respectively.

With `Cc1cc(C(C)Nc2ccccc2C(=O)O)c2oc(-c3ccc4nn(C5COC5)cc4c3)cc(=O)c2c1` (stereo not shown) [Example 56, 2-((1-(6-methyl-2-(2-(oxetan-3-yl)-2H-indazol-5-yl)-4-oxo-4H-chromen-8-yl)ethyl)amino)benzoic acid], the IC50 is 0.55 µM in assay [1] (Homo sapiens) and > 10 µM in assay [3] (Homo sapiens).

Consider `Cc1cc([C@@H](C)Nc2ccccc2C(=O)O)c2oc(-c3ccnc(N4CCOCC4)c3)c(C)c(=O)c2c1` [Example 133, (R)-2-((1-(3,6-dimethyl-2-(2-morpholinopyridin-4-yl)-4-oxo-411-chromen-8-yl)ethyl)amino)benzoic acid], for which the IC50 was 1.18 µM in assay [1] (Homo sapiens) and > 10 µM in assay [3] (Homo sapiens).

Take `Cc1cc(C(C)Nc2ccccc2C(=O)O)c2oc(-c3ccc4c(c3)CN(C3COC3)C4=O)cc(=O)c2c1` (stereo not shown) [Example 45, 2-((1-(6-methyl-2-(2-(oxetan-3-yl)-1-oxoisoindolin-5-yl)-4-oxo-411-chromen-8-yl)ethyl)amino)benzoic acid]: the 50% inhibitory concentration (IC50) in assay [1] (Homo sapiens) was 0.97 µM; in assay [3] (Homo sapiens), > 10 µM.

Take `Cc1cc(C(C)Nc2ccccc2C(=O)O)c2oc(-c3ccc4nn(CCO)cc4c3)cc(=O)c2c1` (stereo not shown) [Example 57, 2-((1-(2-(2-(2-hydroxyethyl)-2H-indazol-5-yl)-6-methyl-4-oxo-4H-chromen-8-yl)ethyl)amino)benzoic acid]: the IC50 in assay [1] (Homo sapiens) was 0.62 µM; in assay [3] (Homo sapiens), > 10 µM.

In general, IC50 refers to the concentration needed to halve the response being measured.
